Measurements reported in ChEMBL document CHEMBL1139122, “Structure-activity relationship (SAR) studies of quinoxalines as novel HCV NS5B RNA-dependent RNA polymerase inhibitors” (Bioorg Med Chem Lett, 2007).
pIC50: −log10 of the molar value.

Experiment: Inhibition of HCV NS5B RdRp
Parameters: species or system Hepacivirus hominis

Point of comparison: `O=C(N[C@@H](Cc1c[nH]c2ccccc12)C(=O)O)c1ccc2nc(-c3ccc(F)cc3)c(-c3ccc(F)cc3)nc2c1`, pIC50 5.72. Against it:
- O=C(O)/C=C/c1ccc(NC(=O)c2ccc3nc(-c4ccc(F)cc4)c(C4CCCCC4)nc3c2)cc1 — 0.38 log units lower, 5.34
- O=C(O)c1ccc2nc(-c3ccc(F)cc3)c(-c3ccc(F)cc3)nc2c1 — 0.46 log units lower, 5.26
- O=C(O)c1ccc2nc(-c3ccccn3)c(-c3ccccn3)nc2c1 — lower, < 4.00
- Cc1ccc(-c2nc3ccc(C(=O)O)cc3nc2-c2ccc(C)cc2)cc1 — 1.32 log units lower, 4.40
- Cc1ccc(-c2nc3ccc(C(=O)N[C@@H](Cc4c[nH]c5ccc(O)cc45)C(=O)O)cc3nc2-c2ccc(C)cc2)cc1 — 0.51 log units lower, 5.21
- O=C(N[C@@H](Cc1c[nH]c2ccc(O)cc12)C(=O)O)c1ccc2nc(-c3ccccc3)c(-c3ccccc3)nc2c1 — 0.76 log units lower, 4.96
- O=C(O)/C=C/c1ccc(NC(=O)C2(NC(=O)c3ccc4nc(-c5ccc(F)cc5)c(-c5ccc(F)cc5)nc4c3)CCC2)cc1 — 0.44 log units higher, 6.16
- CCOC(=O)/C=C/c1ccc(NC(=O)C2(NC(=O)c3ccc4nc(C5CCCCC5)c(-c5ccc(F)cc5)nc4c3)CCC2)cc1 — 0.43 log units lower, 5.29
- COC(=O)[C@H](Cc1c[nH]c2ccc(O)cc12)NC(=O)c1ccc2nc(-c3ccco3)c(-c3ccco3)nc2c1 — 1.13 log units lower, 4.59
- COC(=O)[C@H](Cc1c[nH]c2ccccc12)NC(=O)c1ccc2nc(-c3ccco3)c(-c3ccco3)nc2c1 — lower, < 4.00
- CCOC(=O)/C=C/c1ccc(NC(=O)c2ccc3nc(-c4ccc(F)cc4)c(-c4ccc(F)cc4)nc3c2)cc1 — lower, < 4.00
- COC(=O)[C@H](Cc1c[nH]c2ccc(O)cc12)NC(=O)c1ccc2nc(-c3ccc(C)cc3)c(-c3ccc(C)cc3)nc2c1 — 1.41 log units lower, 4.31
- O=C(O)/C=C/c1ccc(NC(=O)c2ccc3nc(C4CCCCC4)c(-c4ccc(F)cc4)nc3c2)cc1 — 0.33 log units lower, 5.39
- O=C(Nc1ccc(-c2ccc(C(=O)O)o2)cc1)c1ccc2nc(-c3ccccc3)c(C3CCCCC3)nc2c1 — within 0.2 log units, 5.80
- CCOC(=O)/C=C/c1ccc(NC(=O)C2(NC(=O)c3ccc4nc(-c5ccc(F)cc5)c(-c5ccc(F)cc5)nc4c3)CCC2)cc1 — 1.29 log units lower, 4.43
- O=C(O)/C=C/c1ccc(NC(=O)c2ccc3nc(C4CCCCC4)c(-c4ccccc4)nc3c2)cc1 — within 0.2 log units, 5.89
- O=C(Nc1ccc(-c2ccc(C(=O)O)o2)cc1)c1ccc2nc(C3CCCCC3)c(-c3ccccc3)nc2c1 — within 0.2 log units, 5.74
- COc1cccc(-c2nc3ccc(C(=O)N[C@@H](Cc4c[nH]c5ccc(O)cc45)C(=O)O)cc3nc2-c2cccc(OC)c2)c1 — 0.90 log units lower, 4.82
- O=C(N[C@@H](Cc1c[nH]c2ccccc12)C(=O)O)c1ccc2nc(-c3ccc(F)cc3)c(C3CCCCC3)nc2c1 — within 0.2 log units, 5.80
- O=C(O)c1ccc2nc(-c3ccco3)c(-c3ccco3)nc2c1 — 0.95 log units lower, 4.77
- COC(=O)[C@H](Cc1c[nH]c2ccc(O)cc12)NC(=O)c1ccc2nc(-c3cccc(OC)c3)c(-c3cccc(OC)c3)nc2c1 — lower, < 4.00
- O=C(N[C@@H](Cc1c[nH]c2ccc(O)cc12)C(=O)O)c1ccc2nc(C3CCCCC3)c(-c3ccc(F)cc3)nc2c1 — 0.33 log units lower, 5.39
- O=C(N[C@@H](Cc1c[nH]c2ccccc12)C(=O)O)c1ccc2nc(C3CCCCC3)c(-c3ccc(F)cc3)nc2c1 — 0.25 log units lower, 5.47
- O=C(N[C@@H](Cc1c[nH]c2ccccc12)C(=O)O)c1ccc2nc(-c3ccccn3)c(-c3ccccn3)nc2c1 — lower, < 4.00
- COC(=O)[C@H](Cc1c[nH]c2ccccc12)NC(=O)c1ccc2nc(-c3ccccc3)c(-c3ccccc3)nc2c1 — lower, < 4.00
- COc1cccc(-c2nc3ccc(C(=O)N[C@@H](Cc4c[nH]c5ccccc45)C(=O)O)cc3nc2-c2cccc(OC)c2)c1 — lower, < 4.00
- COC(=O)[C@H](Cc1c[nH]c2ccc(OCC(N)=O)cc12)NC(=O)c1ccc2nc(-c3ccc(F)cc3)c(-c3ccc(F)cc3)nc2c1 — 0.65 log units lower, 5.07
- O=C(N[C@@H](Cc1c[nH]c2ccccc12)C(=O)O)c1ccc2nc(-c3ccccc3)c(-c3ccccc3)nc2c1 — 0.90 log units lower, 4.82
- CCOC(=O)/C=C/c1ccc(NC(=O)C2(NC(=O)c3ccc4nc(-c5ccc(F)cc5)c(-c5ccc(F)cc5)nc4c3)CCCC2)cc1 — lower, < 4.00
- O=C(N[C@@H](Cc1c[nH]c2ccc(O)cc12)C(=O)O)c1ccc2nc(-c3ccco3)c(-c3ccco3)nc2c1 — 0.92 log units lower, 4.80
- O=C(O)/C=C/c1ccc(NC(=O)C2(NC(=O)c3ccc4nc(-c5ccc(F)cc5)c(-c5ccc(F)cc5)nc4c3)CCCC2)cc1 — 0.20 log units higher, 5.92
- O=C(O)/C=C/COc1ccc2[nH]cc(C[C@H](NC(=O)c3ccc4nc(-c5ccc(F)cc5)c(-c5ccc(F)cc5)nc4c3)C(=O)O)c2c1 — within 0.2 log units, 5.66
- O=C(N[C@@H](Cc1c[nH]c2ccccc12)C(=O)O)c1ccc2nc(-c3ccco3)c(-c3ccco3)nc2c1 — 1.24 log units lower, 4.48
- O=C(O)c1ccc2nc(-c3ccccc3)c(-c3ccccc3)nc2c1 — 1.62 log units lower, 4.10
- COC(=O)/C=C/COc1ccc2[nH]cc(C[C@H](NC(=O)c3ccc4nc(-c5ccc(F)cc5)c(-c5ccc(F)cc5)nc4c3)C(=O)OC)c2c1 — 1.44 log units lower, 4.28
- COC(=O)[C@H](Cc1c[nH]c2ccccc12)NC(=O)c1ccc2nc(-c3ccc(C)cc3)c(-c3ccc(C)cc3)nc2c1 — lower, < 4.00
- COC(=O)COc1ccc2[nH]cc(C[C@H](NC(=O)c3ccc4nc(-c5ccc(F)cc5)c(-c5ccc(F)cc5)nc4c3)C(=O)OC)c2c1 — 1.72 log units lower, 4.00
- O=C(N[C@@H](Cc1c[nH]c2ccc(O)cc12)C(=O)O)c1ccc2nc(-c3ccc(F)cc3)c(-c3ccc(F)cc3)nc2c1 — within 0.2 log units, 5.89
- COC(=O)[C@H](Cc1c[nH]c2ccc(O)cc12)NC(=O)c1ccc2nc(-c3ccc(F)cc3)c(-c3ccc(F)cc3)nc2c1 — 0.46 log units lower, 5.26
- O=C(O)/C=C/c1ccc(NC(=O)c2ccc3nc(-c4ccc(F)cc4)c(-c4ccc(F)cc4)nc3c2)cc1 — 0.95 log units lower, 4.77
- O=C(N[C@@H](Cc1c[nH]c2ccc(O)cc12)C(=O)O)c1ccc2nc(-c3ccc(F)cc3)c(C3CCCCC3)nc2c1 — 0.38 log units lower, 5.34
- O=C(O)COc1ccc2[nH]cc(C[C@H](NC(=O)c3ccc4nc(-c5ccc(F)cc5)c(-c5ccc(F)cc5)nc4c3)C(=O)O)c2c1 — within 0.2 log units, 5.77
- O=C(N[C@@H](Cc1c[nH]c2ccccc12)C(=O)O)c1ccc2nc(C3CCCCC3)c(-c3ccccc3)nc2c1 — 0.29 log units lower, 5.43
- COC(=O)[C@H](Cc1c[nH]c2ccc(O)cc12)NC(=O)c1ccc2nc(-c3ccccc3)c(-c3ccccc3)nc2c1 — 1.58 log units lower, 4.14
- NC(=O)COc1ccc2[nH]cc(C[C@H](NC(=O)c3ccc4nc(-c5ccc(F)cc5)c(-c5ccc(F)cc5)nc4c3)C(=O)O)c2c1 — 0.23 log units lower, 5.49
- COC(=O)[C@H](Cc1c[nH]c2ccccc12)NC(=O)c1ccc2nc(-c3cccc(OC)c3)c(-c3cccc(OC)c3)nc2c1 — lower, < 4.00
- COC(=O)[C@H](Cc1c[nH]c2ccccc12)NC(=O)c1ccc2nc(-c3ccc(F)cc3)c(-c3ccc(F)cc3)nc2c1 — lower, < 4.00
- COc1cccc(-c2nc3ccc(C(=O)O)cc3nc2-c2cccc(OC)c2)c1 — lower, < 4.00
- O=C(N[C@@H](Cc1c[nH]c2ccc(O)cc12)C(=O)O)c1ccc2nc(-c3ccccc3)c(C3CCCCC3)nc2c1 — 0.50 log units higher, 6.22
- O=C(N[C@@H](Cc1c[nH]c2ccc(O)cc12)C(=O)O)c1ccc2nc(C3CCCCC3)c(-c3ccccc3)nc2c1 — 0.42 log units lower, 5.30
- O=C(N[C@@H](Cc1c[nH]c2ccccc12)C(=O)O)c1ccc2nc(-c3ccccc3)c(C3CCCCC3)nc2c1 — within 0.2 log units, 5.74
- CCOC(=O)/C=C/c1ccc(NC(=O)C2(NC(=O)c3ccc4nc(-c5ccc(F)cc5)c(C5CCCCC5)nc4c3)CCC2)cc1 — within 0.2 log units, 5.89
- COC(=O)[C@H](Cc1c[nH]c2ccccc12)NC(=O)c1ccc2nc(-c3ccccn3)c(-c3ccccn3)nc2c1 — lower, < 4.00
